Like-named read-outs stand apart in the source and are kept apart here.
Biological target: T1, human enzyme NAMPT (full length) (Homo sapiens, UniProt P43490)
T1 construct: human enzyme NAMPT (full length)
Experiment: NMN fluorescence biochemical assay (stimulation of NMN synthesis by NAMPT)
Settings: for EC50: concentration giving half-maximal activation, read-out: Enzymatic EC50; for Enzymatic Emax: fold change of maximal activation compared to DMSO
Procedure: Certain compounds described herein were assayed for their ability to stimulate the synthesis of nicotinamide mononucleotide (NMN) by human enzyme NAMPT (full length). The enzymatic assay was performed in a 384-well plate using a TMD buffer (50 mM Tris-HCl, 10 mM MgCl2, 2 mM DTT, pH 7.5). Purified NAMPT (100 nM) was pre-incubated with 0.2 μL. DMSO solution of the test compound (with a series of concentrations) in 10 μL TMD buffer for 15 min at 37° C. The reaction was initiated by adding 10 μL solution of NAM (50 μM), PRPP (100 μM), and ATP (4 mM) in TMD buffer. After 1 h of incubation at 37 T, an aliquot (20 μL) of the NMN-containing sample was sequentially mixed with 5 μL of 20% acetophenone (in DMSO) and 5 μL of 2M KOH. The mixture was placed on ice for 10 min. Next, 22.5 μL of 100% formic acid was added to each sample, vortexed, and then incubated at 37° C. for 20 min. Fluorescence (Ex/Em=382/445 nm) was measured using an Envision plate reader. The potency measurements for the test compounds were quantified and represented as EC50 (concentration of a compound that gives half-maximal activation) and Emax (fold change of a compound's maximal activation compared to DMSO).

[1] = NMN synthesis by purified human NAMPT (100 nM)
[2] = NMN fluorescence assay, purified human NAMPT 100 nM

T1 sequence (P43490 whole entry): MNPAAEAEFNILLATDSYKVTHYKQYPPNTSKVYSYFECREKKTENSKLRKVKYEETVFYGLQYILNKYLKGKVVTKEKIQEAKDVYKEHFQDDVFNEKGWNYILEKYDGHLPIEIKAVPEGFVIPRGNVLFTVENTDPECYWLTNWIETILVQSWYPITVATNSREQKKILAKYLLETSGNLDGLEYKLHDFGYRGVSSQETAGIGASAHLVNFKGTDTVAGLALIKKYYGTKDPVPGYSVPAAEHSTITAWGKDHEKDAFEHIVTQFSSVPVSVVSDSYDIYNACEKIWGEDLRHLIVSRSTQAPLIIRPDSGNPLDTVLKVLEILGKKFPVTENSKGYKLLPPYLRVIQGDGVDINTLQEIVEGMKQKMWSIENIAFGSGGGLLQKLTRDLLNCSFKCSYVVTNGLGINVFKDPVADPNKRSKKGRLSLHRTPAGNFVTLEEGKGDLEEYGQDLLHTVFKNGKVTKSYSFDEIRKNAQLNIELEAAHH

SMILES	EC50 [1]	Enzymatic Emax	EC50 [2]
Cc1ccc2c(c1)C(=O)N(Cc1ccc(O)cc1)C2 [Compound 32, 2-(4-hydroxybenzyl)-6-methylisoindolin-1-one]	≥ 5 µM	A (A>3)	–
N#Cc1cccc(F)c1C[C@@H]1c2ccccc2C(=O)N1Cc1ccc2[nH]c(=O)oc2c1 [Compound 171, (R)-3-fluoro-2-((3-oxo-2-((2-oxo-2,3-dihydrobenzo[d]oxazol-6-yl)methyl)isoindolin-1-yl)methyl)benzonitrile]	≥ 5 µM	C (2≥C)	–
O=C1c2ccccc2C(Cc2ccc3ncoc3c2)N1Cc1ccc2[nH]c(=O)oc2c1 (centres unmarked) [Compound 216, 6-((1-(benzo[d]oxazol-6-ylmethyl)-3-oxoisoindolin-2-yl)methyl)benzo[d]oxazol-2(3H)-one]	0.5 to 5 µM	A (A>3)	–
Cc1ccnc(C#N)c1CC1c2ccccc2C(=O)N1CC1CCc2[nH]nnc2C1 (centres unmarked) [Compound 454, 4-methyl-3-((3-oxo-2-((4,5,6,7-tetrahydro-1H-benzo[d][1,2,3]triazol-5-yl)methyl)isoindolin-1-yl)methyl)picolinonitrile]	–	C (2≥C)	≥ 5 µM
NC(=O)c1cnc(CN2C(=O)c3ccccc3C2Cc2ncccc2Br)s1 (centres unmarked) [Compound 280, 2-((1-((3-bromopyridin-2-yl)methyl)-3-oxoisoindolin-2-yl)methyl)thiazole-5-carboxamide]	≥ 5 µM	B (3≥B>2)	–
Cn1ncc(Cl)c1CC1c2ccccc2C(=O)N1CC1CCc2[nH]nnc21 (centres unmarked) [Compound 457, 3-((4-chloro-1-methyl-1H-pyrazol-5-yl)methyl)-2-((1,4,5,6-tetrahydrocyclopenta[d][1,2,3]triazol-4-yl)methyl)isoindolin-1-one]	–	C (2≥C)	≥ 5 µM
COc1cccc2c1C(=O)N(CC1CC3(CNC(=O)O3)C1)C2Cc1c(Cl)cnn1C (centres unmarked) [Compound 433, 2-((1-((4-chloro-1-methyl-1H-pyrazol-5-yl)methyl)-4-methoxy-3-oxoisoindolin-2-yl)methyl)-5-oxa-7-azaspiro[3.4]octan-6-one]	–	B (3≥B>2)	0.5 to 5 µM
CCn1c2ccccc2c(=O)n1Cc1ccc(O)cc1 [Compound 24, 1-ethyl-2-(4-hydroxybenzyl)-1,2-dihydro-3H-indazol-3-one]	≥ 5 µM	A (A>3)	–
O=C1Cc2ccccc2CN1Cc1ccc(O)cc1 [Compound 10, 2-(4-hydroxybenzyl)-1,4-dihydroisoquinolin-3(2H)-one]	≥ 5 µM	B (3≥B>2)	–
CN(C)c1ccc2c(c1)C(Cc1c(Cl)cnn1C)N(CC1CC3(CNC(=O)O3)C1)C2=O (centres unmarked) [Compound 498, 2-((3-((4-chloro-1-methyl-1H-pyrazol-5-yl)methyl)-5-(dimethylamino)-1-oxoisoindolin-2-yl)methyl)-5-oxa-7-azaspiro[3.4]octan-6-one]	–	B (3≥B>2)	< 0.5 µM
Cc1conc1CC1c2ccccc2C(=O)N1Cc1ccc2[nH]c(=O)oc2c1 (centres unmarked) [Compound 248, 6-((1-((4-methylisoxazol-3-yl)methyl)-3-oxoisoindolin-2-yl)methyl)benzo[d]oxazol-2(3H)-one]	0.5 to 5 µM	A (A>3)	–
O=C1c2ccccc2C(Cc2ncccc2Br)N1Cc1ccc2[nH]cnc2c1 (centres unmarked) [Compound 268, 2-((1H-benzo[d]imidazol-5-yl)methyl)-3-((3-bromopyridin-2-yl)methyl)isoindolin-1-one]	0.5 to 5 µM	A (A>3)	–
Nc1ccccc1CC1c2ccccc2C(=O)N1Cc1ccc2[nH]c(=O)oc2c1 (centres unmarked) [Compound 208, 6-((1-(2-aminobenzyl)-3-oxoisoindolin-2-yl)methyl)benzo[d]oxazol-2(3H)-one]	0.5 to 5 µM	B (3≥B>2)	–
O=C1CC2(CN1)CC(CN1C(=O)c3ccccc3C1Cc1ncccc1Br)C2 (centres unmarked) [Compound 424, 3-((3-bromopyridin-2-yl)methyl)-2-((7-oxo-6-azaspiro[3.4]octan-2-yl)methyl) isoindolin-1-one]	–	C (2≥C)	≥ 5 µM
Cc1cc(F)c2c(c1)C(Cc1c(Cl)cnn1C)N(CC1CC3(CNC(=O)O3)C1)C2=O (centres unmarked) [Compound 506, 2-((1-((4-chloro-1-methyl-1H-pyrazol-5-yl)methyl)-4-fluoro-6-methyl-3-oxoisoindolin-2-yl)methyl)-5-oxa-7-azaspiro[3.4]octan-6-one]	–	B (3≥B>2)	< 0.5 µM
O=C1c2ccccc2C(CC2CCOCC2)N1Cc1ccc2[nH]c(=O)oc2c1 (centres unmarked) [Compound 226, 6-((1-oxo-3-((tetrahydro-2H-pyran-4-yl)methyl)isoindolin-2-yl)methyl)benzo[d]oxazol-2(3H)-one]	≥ 5 µM	B (3≥B>2)	–
COc1ncc(CN2C(=O)c3ccccc3C2Cc2c(Cl)cnn2C)cc1F (centres unmarked) [Compound 532, 3-((4-chloro-1-methyl-1H-pyrazol-5-yl)methyl)-2-((5-fluoro-6-methoxypyridin-3-yl)methyl)isoindolin-1-one]	–	C (2≥C)	≥ 5 µM
CC(C)c1cccnc1CC1c2ccccc2C(=O)N1Cc1ccc2[nH]c(=O)oc2c1 (centres unmarked) [Compound 181, 6-((1-((3-isopropylpyridin-2-yl)methyl)-3-oxoisoindolin-2-yl)methyl)benzo[d]oxazol-2(3H)-one]	≥ 5 µM	B (3≥B>2)	–
Cc1cc(CC2c3ccccc3C(=O)N2Cc2ccc3[nH]c(=O)oc3c2)ccn1 (centres unmarked) [Compound 179, 6-((1-((2-methylpyridin-4-yl)methyl)-3-oxoisoindolin-2-yl)methyl)benzo[d]oxazol-2(3H)-one]	≥ 5 µM	B (3≥B>2)	–
O=C1c2ccccc2C(Cc2ccc(Cl)cn2)N1Cc1ccc2[nH]c(=O)oc2c1 (centres unmarked) [Compound 196, 6-((1-((5-chloropyridin-2-yl)methyl)-3-oxoisoindolin-2-yl)methyl)benzo[d]oxazol-2(3H)-one]	0.5 to 5 µM	B (3≥B>2)	–
Cn1ncc(Cl)c1CC1c2ccccc2C(=O)N1C[C@@H]1C[C@H]1c1c[nH]nn1 (relative stereo) [Compound 548, trans 2-((2-(1H-1,2,3-triazol-4-yl)cyclopropyl)methyl)-3-((4-chloro-1-methyl-1H-pyrazol-5-yl)methyl)isoindolin-1-one]	–	–	0.5 to 5 µM
Cc1cccc2c1C(C)N(Cc1ccc3[nH]c(=O)oc3c1)C2=O (centres unmarked) [Compound 246, 6-((3,4-dimethyl-1-oxoisoindolin-2-yl)methyl)benzo[d]oxazol-2(3H)-one]	≥ 5 µM	B (3≥B>2)	–
O=C1c2ccccc2C(Cc2ncccc2Br)N1Cc1ccn2c(=O)[nH]nc2c1 (centres unmarked) [Compound 281, 7-((1-((3-bromopyridin-2-yl)methyl)-3-oxoisoindolin-2-yl)methyl)-[1,2,4]triazolo[4,3-a]pyridin-3(2H)-one]	≥ 5 µM	C (2≥C)	–
Cn1ncc(Cl)c1CC1(C)c2ccccc2C(=O)N1CC1CC2(CNC(=O)O2)C1 (centres unmarked) [Compound 445, 2-((1-((4-chloro-1-methyl-1H-pyrazol-5-yl)methyl)-1-methyl-3-oxoisoindolin-2-yl)methyl)-5-oxa-7-azaspiro[3.4]octan-6-one]	–	B (3≥B>2)	≥ 5 µM
O=C1c2ccccc2C(COc2cccc(Cl)n2)N1Cc1ccc2[nH]c(=O)oc2c1 (centres unmarked) [Compound 260, 6-((1-(((6-chloropyridin-2-yl)oxy)methyl)-3-oxoisoindolin-2-yl)methyl)benzo[d]oxazol-2(3H)-one]	0.5 to 5 µM	B (3≥B>2)	–
Cc1cc2[nH]c(=O)oc2cc1CN1C(=O)c2ccccc2C1Cc1ncccc1Br (centres unmarked) [Compound 333, 6-((1-((3-bromopyridin-2-yl)methyl)-3-oxoisoindolin-2-yl)methyl)-5-methylbenzo[d]oxazol-2(3H)-one]	–	B (3≥B>2)	0.5 to 5 µM
Cn1ncc(Cl)c1CC1c2ccccc2C(=O)N1CC1CC2(C1)OC(=O)NC2=O (centres unmarked) [Compound 587, 2-((1-((4-chloro-1-methyl-1H-pyrazol-5-yl)methyl)-3-oxoisoindolin-2-yl)methyl)-5-oxa-7-azaspiro[3.4]octane-6,8-dione]	–	C (2≥C)	≥ 5 µM
O=C1c2ccccc2C(Cc2cccc3ncoc23)N1Cc1ccc2[nH]c(=O)oc2c1 (centres unmarked) [Compound 218, 6-((1-(benzo[d]oxazol-7-ylmethyl)-3-oxoisoindolin-2-yl)methyl)benzo[d]oxazol-2(3H)-one]	0.5 to 5 µM	A (A>3)	–
Cn1ncc(Cl)c1CC1c2cccc(Br)c2C(=O)N1CC1CC2(CNC(=O)O2)C1 (centres unmarked) [Compound 434, 2-((4-bromo-1-((4-chloro-1-methyl-1H-pyrazol-5-yl)methyl)-3-oxoisoindolin-2-yl)methyl)-5-oxa-7-azaspiro[3.4]octan-6-one]	–	B (3≥B>2)	0.5 to 5 µM
Cn1ncc(Cl)c1CC1c2ccccc2C(=O)N1CC1CC2(COC2)C1 (centres unmarked) [Compound 564, 2-((2-oxaspiro[3.3]heptan-6-yl)methyl)-3-((4-chloro-1-methyl-1H-pyrazol-5-yl)methyl)isoindolin-1-one]	–	C (2≥C)	≥ 5 µM
